The record followed here is PubChem BioAssay (NCI).

Molecules are shown by their SMILES.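 Values below derive from 48-hour exposures of cells grown in 96-well plates, with endpoints linearly interpolated between the two concentrations bracketing the appropriate inhibition level. GI50 is the concentration that inhibits growth by half. TGI is the concentration that stops growth completely.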

Some test systems named below: COLO 205 colon; NCI-H23 lung; 786-0 renal; SF-295 CNS; UACC-62 melanoma; SNB-19 CNS; OVCAR-4 ovarian; HCT-15 colon; CCRF-CEM leukemia.
Holding throughout (assay): growth of human tumour cells (NCI), 48 h

On to `CC(=O)Nc1ccc(C(=O)N[C@@H]2C(=O)N3[C@@H]2SC(C)(C)[C@@H]3C(=O)O)cn1`, for which the TGI in the experiment with COLO 205 colon, in the experiment on NCI-H23 lung, in the experiment on 786-0 renal, with SF-295 CNS, with UACC-62 melanoma and with SNB-19 CNS was above 100 µM in each case. Further, the TGI with OVCAR-4 ovarian, in the experiment with HCT-15 colon and with CCRF-CEM leukemia was above 100 µM throughout.

`CCOc1ccc(NC(=O)C2=C(C)NC(C)=C(C(=O)Nc3ccc(OCC)cc3)C2c2ccc([N+](=O)[O-])cc2)cc1`: the TGI is 53.3 µM with COLO 205 colon; above 100 µM in the experiment on NCI-H23 lung; above 100 µM in the experiment on 786-0 renal; above 100 µM in the experiment on SF-295 CNS; above 100 µM in the experiment on SNB-19 CNS; above 100 µM with OVCAR-4 ovarian. For the same molecule, the TGI in the experiment on CCRF-CEM leukemia was found to be 90.8 µM.

Take `C[Si](C)(C)/C(Br)=C\CCN1C(=O)CCC1O` (centres undefined): the TGI in the experiment with COLO 205 colon, in the experiment on NCI-H23 lung, with 786-0 renal, with SF-295 CNS, in the experiment with UACC-62 melanoma and with SNB-19 CNS was above 100 µM each time. Besides, the TGI with OVCAR-4 ovarian, in the experiment on HCT-15 colon and in the experiment on CCRF-CEM leukemia was above 100 µM in each case.

With `O=c1c2ccccc2nc(-c2ccc(Cl)cc2)n1O`, the TGI is above 100 µM in the experiment on COLO 205 colon; above 100 µM in the experiment with NCI-H23 lung; 94.4 µM with 786-0 renal; 94.1 µM in the experiment on SF-295 CNS; above 100 µM in the experiment on UACC-62 melanoma; above 100 µM in the experiment with SNB-19 CNS. Besides, the TGI in the experiment on OVCAR-4 ovarian was above 100 µM; in the experiment on HCT-15 colon, above 100 µM; in the experiment on CCRF-CEM leukemia, 59.8 µM.

On to `CC(CN(CP(=O)([O-])[O-])CP(=O)([O-])[O-])N(CP(=O)([O-])[O-])CP(=O)([O-])[O-].N[C@@H]1CCCC[C@@H]1N.[Pt+2]` (centres undefined), for which the GI50 with COLO 205 colon, in the experiment with NCI-H23 lung, in the experiment with 786-0 renal, in the experiment on SF-295 CNS, in the experiment on UACC-62 melanoma and in the experiment with SNB-19 CNS was above 100 µM throughout. Further, the GI50 with OVCAR-4 ovarian, in the experiment with HCT-15 colon and in the experiment on CCRF-CEM leukemia was above 100 µM each time. Also, the TGI in the experiment on COLO 205 colon, in the experiment with NCI-H23 lung, with 786-0 renal, with SF-295 CNS, in the experiment on UACC-62 melanoma and with SNB-19 CNS was above 100 µM in each case. Besides, the TGI with OVCAR-4 ovarian, in the experiment with HCT-15 colon and in the experiment with CCRF-CEM leukemia was above 100 µM in each case.

Consider `Cc1ccc(Cl)cc1Nc1nc(C(F)(F)F)ccc1C(=O)Oc1ccc(Cl)cc1`, for which the GI50 was 9.81 µM with COLO 205 colon; 11.7 µM in the experiment on NCI-H23 lung; 14.3 µM in the experiment with 786-0 renal; 7.08 µM in the experiment with SF-295 CNS; 15.8 µM with UACC-62 melanoma; 9.42 µM with SNB-19 CNS. Moreover, the values for the GI50 in the experiment with OVCAR-4 ovarian, in the experiment with HCT-15 colon and with CCRF-CEM leukemia were 11.1 µM, 10.9 µM and 7.68 µM, respectively. In addition, the TGI was above 100 µM in the experiment on COLO 205 colon; 27.8 µM in the experiment with NCI-H23 lung; 30.8 µM in the experiment with 786-0 renal; 21.7 µM in the experiment with SF-295 CNS; 38.6 µM in the experiment on UACC-62 melanoma; above 100 µM in the experiment with SNB-19 CNS. The TGI was 44.3 µM in the experiment on OVCAR-4 ovarian, 30.8 µM in the experiment on HCT-15 colon and 24.4 µM with CCRF-CEM leukemia.

`CC(=O)OCCOCNC(=S)N/N=C(\C)c1ccco1`: the TGI with COLO 205 colon, with NCI-H23 lung, in the experiment with 786-0 renal, in the experiment on SF-295 CNS, with UACC-62 melanoma and with SNB-19 CNS was above 100 µM throughout. Besides, the TGI with OVCAR-4 ovarian, in the experiment with HCT-15 colon and with CCRF-CEM leukemia was above 100 µM each time.

On to `CNCCNc1nc2ccccc2c2c(=O)c3cccc(OC)c3sc12`, for which the GI50 is 1.11 µM in the experiment on COLO 205 colon; 1.48 µM in the experiment with NCI-H23 lung; 1.76 µM in the experiment on 786-0 renal; 1.55 µM with SF-295 CNS; 1.57 µM in the experiment on UACC-62 melanoma; 1.47 µM in the experiment with OVCAR-4 ovarian. Also, the GI50 is 0.829 µM with HCT-15 colon and 1.43 µM in the experiment on CCRF-CEM leukemia. For the same molecule, the TGI is 2.68 µM in the experiment on COLO 205 colon; 3 µM in the experiment with NCI-H23 lung; 3.35 µM in the experiment with 786-0 renal; 3.13 µM in the experiment with SF-295 CNS; 2.97 µM with UACC-62 melanoma; 3.16 µM in the experiment with OVCAR-4 ovarian. Also, the TGI in the experiment on HCT-15 colon is 2.15 µM; with CCRF-CEM leukemia it was 3.2 µM.

Take `CC1SC(c2cccs2)N(NC(=O)C(O)c2ccccc2)C1=O` (centres undefined): the GI50 in the experiment with COLO 205 colon, in the experiment on NCI-H23 lung, in the experiment on 786-0 renal, in the experiment on SF-295 CNS, in the experiment with UACC-62 melanoma and in the experiment with SNB-19 CNS was above 100 µM each time. In addition, the GI50 with OVCAR-4 ovarian, in the experiment with HCT-15 colon and in the experiment with CCRF-CEM leukemia was above 100 µM throughout. Also, the TGI with COLO 205 colon, in the experiment on NCI-H23 lung, with 786-0 renal, in the experiment on SF-295 CNS, in the experiment on UACC-62 melanoma and with SNB-19 CNS was above 100 µM in each case. Moreover, the TGI in the experiment with OVCAR-4 ovarian, in the experiment on HCT-15 colon and in the experiment on CCRF-CEM leukemia was above 100 µM each time.

As for `CCN(CCCl)CCNc1c2ccccc2nc2ccc(OC)cc12`, the TGI was 1.82 µM in the experiment with COLO 205 colon; 2.12 µM in the experiment with NCI-H23 lung; 1.84 µM in the experiment with 786-0 renal; 4 µM in the experiment on SF-295 CNS; 1.94 µM in the experiment on UACC-62 melanoma; 8.62 µM in the experiment on SNB-19 CNS. In addition, the TGI was 3.24 µM in the experiment with OVCAR-4 ovarian, 3.39 µM with HCT-15 colon and 2.41 µM with CCRF-CEM leukemia.

Consider `CC(=O)O[C@H]1CC[C@@]2(C)C(=CC[C@@H]3C2CC[C@]2(C)Nc4oncc4CC32)C1` (some centres undefined), for which the TGI is above 100 µM in the experiment with NCI-H23 lung; above 100 µM with 786-0 renal; above 100 µM with SF-295 CNS; 99 µM with UACC-62 melanoma; 34.4 µM with OVCAR-4 ovarian; above 100 µM in the experiment on HCT-15 colon. Also, the TGI in the experiment with CCRF-CEM leukemia stood at 23 µM.

Turning to `COC(=O)/C(C#N)=C1\N=NNN1CCCc1ccccc1`, the TGI in the experiment on COLO 205 colon, in the experiment on NCI-H23 lung, in the experiment on 786-0 renal, in the experiment with SF-295 CNS, in the experiment with UACC-62 melanoma and in the experiment on SNB-19 CNS was above 100 µM throughout. For the same molecule, the TGI with HCT-15 colon and in the experiment on CCRF-CEM leukemia was above 100 µM throughout.

For `O=C(NC(=S)NS(=O)(=O)c1ccc(N2N=C3c4ccccc4CC3C2c2cccs2)cc1)c1ccccc1` (centres undefined), the GI50 is 38.4 µM in the experiment on COLO 205 colon; 27.9 µM in the experiment with 786-0 renal; 25.4 µM in the experiment with SF-295 CNS; 14.6 µM with UACC-62 melanoma; 46.3 µM in the experiment with SNB-19 CNS; 87.6 µM in the experiment with OVCAR-4 ovarian. Further, the GI50 in the experiment with HCT-15 colon was 30.2 µM; in the experiment with CCRF-CEM leukemia it was 27.9 µM. For the same molecule, the TGI with COLO 205 colon was above 100 µM; in the experiment on 786-0 renal, above 100 µM; in the experiment with SF-295 CNS, 78.6 µM; in the experiment on UACC-62 melanoma, 36.8 µM; with SNB-19 CNS it was above 100 µM; in the experiment with OVCAR-4 ovarian it was above 100 µM. In addition, the TGI with HCT-15 colon and in the experiment with CCRF-CEM leukemia was above 100 µM throughout.

In the case of `CC(C)(C)c1ccccc1NS(=O)(=O)c1ccccc1`, the TGI in the experiment on NCI-H23 lung, in the experiment with 786-0 renal, with SF-295 CNS, with UACC-62 melanoma, with OVCAR-4 ovarian and with HCT-15 colon was above 100 µM each time. Also, the TGI with CCRF-CEM leukemia was above 100 µM.

Consider `O=C1c2cccnc2-c2nc(-c3ccc([N+](=O)[O-])cc3)cc3c2c1nc1ccccc13`, for which the GI50 was 5.54 µM in the experiment on COLO 205 colon; 2.51 µM in the experiment on NCI-H23 lung; 10.4 µM in the experiment with 786-0 renal; 4.47 µM with SF-295 CNS; 5.43 µM in the experiment with UACC-62 melanoma; 6.4 µM in the experiment on SNB-19 CNS. Also, the values for the GI50 with OVCAR-4 ovarian and in the experiment with HCT-15 colon were 13.4 µM and 1.97 µM, respectively. The TGI with COLO 205 colon amounted to 11.9 µM; with NCI-H23 lung, 10.1 µM; in the experiment on 786-0 renal, 40.1 µM; in the experiment with SF-295 CNS, 15.4 µM; in the experiment on UACC-62 melanoma, 15.6 µM; in the experiment on SNB-19 CNS it was 18.3 µM. Besides, the figures for the TGI with OVCAR-4 ovarian and in the experiment on HCT-15 colon were 30.7 µM and 8.04 µM, respectively.

Turning to `CC1=C(C(=O)Nc2ccc(F)c(Cl)c2)C(c2cccc(Cl)c2)NC(=O)N1` (centres undefined), the GI50 was 13.7 µM in the experiment with COLO 205 colon; 16.8 µM with NCI-H23 lung; 17.4 µM in the experiment with 786-0 renal; 20.2 µM in the experiment on SF-295 CNS; 13.2 µM with UACC-62 melanoma; 18.1 µM with SNB-19 CNS. Besides, the GI50 in the experiment with HCT-15 colon is 20.6 µM; with CCRF-CEM leukemia it was 21.2 µM. The TGI in the experiment on COLO 205 colon is 27.8 µM; in the experiment on NCI-H23 lung, 31.9 µM; in the experiment on 786-0 renal, 35.3 µM; with SF-295 CNS, 50.9 µM; in the experiment on UACC-62 melanoma, 26.7 µM; in the experiment with SNB-19 CNS, 39 µM. The TGI in the experiment with HCT-15 colon was 46.9 µM; in the experiment with CCRF-CEM leukemia, 58.2 µM.

Consider `CCOC(=O)[C@H]1Nc2ccc(O)cc2C2c3ccccc3CC21` (some centres undefined), for which the TGI with COLO 205 colon, in the experiment on NCI-H23 lung, in the experiment on 786-0 renal, in the experiment on UACC-62 melanoma, with SNB-19 CNS and with OVCAR-4 ovarian was above 100 µM in each case. Also, in the experiment on HCT-15 colon, the TGI was above 100 µM.
